Where two headings read alike, the source gives them in different places.
Assays:
[1] = tested on: Adrenergic, Beta, Non-selective; assay: CNS side effect panel, [^3H]DHA; format: binding; conditions: pentamidine 1.0E^-5 M
Imidazoline2 receptor = conditions: 3H-idazoxan binding; cited from earlier work
[2] = tested on: Glutamate,NMDA,Glycine (Stry-insens Site) (Ionot); assay: CNS side effect panel, [^3H]-MDL-105,519; format: binding; conditions: pentamidine 1.0E^-5 M
P-gp (human MDR1) = assay: in vitro; conditions: dog
[3] = biological target: T1, Opioid, Orphanin, ORL1 (h) (Homo sapiens, UniProt P41146); assay: CNS side effect panel, [^3H] Nociceptin; format: binding; conditions: pentamidine 1.0E^-5 M
T1 construct: purchased Perkin-Elmer Science Discovery Systems (NovaScreen), customised CNS screening panel

[4] = biological target: Muscarinic, Non-selective, Central; assay: CNS side effect panel, [^3H]QNB; format: binding
[5] = tested on: Cholecystokinin, CCK2 (CCKB); assay: CNS side effect panel, [^125I]CCK-8; format: binding; conditions: pentamidine 1.0E^-5 M
GABA A, Agonist Site = assay: CNS side effect panel, [^3H]GABA; format: binding; conditions: pentamidine 1.0E^-5 M
[6] = tested on: Potassium Channel, ATP-Sensitive; assay: CNS side effect panel, [^3H]Glibenclamide; format: binding; conditions: pentamidine 1.0E^-5 M
[7] = tested on: Trypanosoma brucei blood stream form trypomastigotes (T. b. brucei strain S427); assay: Trypanocidal activity in vitro (Alamar Blue); format: cell-based
[8] = tested on: Decarboxylase, Glutamic Acid; assay: CNS side effect panel, [^14C]Glutamic acid; format: biochemical; conditions: pentamidine 1.0E^-5 M
[9] = biological target: cloned hKir2.1 potassium channels (Homo sapiens, UniProt P63252); assay: cell-based
Sigma, Non-selective = assay: CNS side effect panel, [^3H]DTG; format: binding; conditions: pentamidine 1.0E^-5 M
[10] = biological target: Imidazoline, I2 [central]; assay: CNS side effect panel, [^3H]2-BFI; format: binding
Angiotensin II, AT2 = assay: CNS side effect panel, [^125I]Tyr4-Angiotensin II; format: binding; conditions: pentamidine 1.0E^-5 M
[11] = tested on: Potassium Channel, Ca2+ Act., VI; assay: CNS side effect panel, [^125I]Apamin; format: binding; conditions: pentamidine 1.0E^-5 M
[12] = biological target: Oxidase, MAO-B, Peripheral (Rattus norvegicus, UniProt P19643); assay: CNS side effect panel, [^14C]Phenylethylamine; format: biochemical
[13] = tested on: Glutamate, NMDA Agonist Site (Ionotropic); assay: CNS side effect panel, [^3H]CGP 39653; format: binding; conditions: pentamidine 1.0E^-5 M
Melatonin, Non-selective = assay: CNS side effect panel, [^125I]-2-Iodomelatonin; format: binding; conditions: pentamidine 1.0E^-5 M
[14] = tested on: Glutamate, AMPA Site (Ionotropic); assay: CNS side effect panel, [^3H]AMPA; format: binding; conditions: pentamidine 1.0E^-5 M
[15] = Drug release from dialysis cells (Ritger-Peppas model); format: physicochemical; conditions: 10 mM PTI ± 1% Pluronic, water, 37°C
Protocol: The tube was immersed in a 200 mL closed Duran flask which was placed in a water bath at 37°C for the duration of the experiment.
The data was fitted to Ritger-Peppas model.
Where M and M∞ are the cumulative amounts of drug released at time t and at infinite time, respectively; k, the reaction constant, t the time, n, the diffusional exponent describing the type of regime type: n = 1, case II transport, n = 0.5, Fickian diffusion, 0.5<n<1 non-Fickian diffusion.

Serotonin, Non-selective = assay: CNS side effect panel, [^3H] LSD; format: binding; conditions: pentamidine 1.0E^-5 M
Esterase, Acetylcholine = assay: CNS side effect panel, Acetylthiocholine; format: biochemical; conditions: pentamidine 1.0E^-5 M
Delta2glutamate receptor = conditions: Voltage independent; cited from earlier work
[16] = tested on: Nitric Oxide, NOS (Neuronal-Binding); assay: CNS side effect panel, [^3H]NOARG; conditions: pentamidine 1.0E^-5 M
[17] = tested on: Trypanosoma brucei gambience; conditions: cited from earlier work
Serine proteases = conditions: cited from earlier work
Dopamine, D2s (h) = biological target: T2, Dopamine, D2s (h) (Homo sapiens, UniProt P14416); assay: CNS side effect panel, [^3H]-Raclopride; format: binding; conditions: pentamidine 1.0E^-5 M
T2 construct: purchased Perkin-Elmer Science Discovery Systems (NovaScreen), customised CNS screening panel

[18] = tested on: Glutamate, Kainate Site (Ionotropic); assay: CNS side effect panel, [^3H]Kainic acid; format: binding; conditions: pentamidine 1.0E^-5 M
Endothelin, ET-B (h) = biological target: T3, Endothelin, ET-B (h) (Homo sapiens, UniProt P24530); assay: CNS side effect panel, [^125I]-Endothelin-1; format: binding; conditions: pentamidine 1.0E^-5 M
T3 construct: purchased Perkin-Elmer Science Discovery Systems (NovaScreen), customised CNS screening panel

[19] = tested on: Adrenergic, Alpha 2, Non-selective; assay: CNS side effect panel, [^3H]RX821002; format: binding; conditions: pentamidine 1.0E^-5 M
Opioid, Non-selective = assay: CNS side effect panel, [^3H]Naloxone; format: binding
[20] = In vivo pharmacokinetic brain distribution with [^3H(G)]pentamidine; design: species or system BALB/c mice; conditions: 2 hours post-injection i.v., corrected for vascular/[^14C]sucrose space
[21] = previously published data; cited from earlier work
[22] = read-out: % of bsf trypomastigotes inhibited

Chain of Oxidase, MAO-B, Peripheral (P19643 whole entry): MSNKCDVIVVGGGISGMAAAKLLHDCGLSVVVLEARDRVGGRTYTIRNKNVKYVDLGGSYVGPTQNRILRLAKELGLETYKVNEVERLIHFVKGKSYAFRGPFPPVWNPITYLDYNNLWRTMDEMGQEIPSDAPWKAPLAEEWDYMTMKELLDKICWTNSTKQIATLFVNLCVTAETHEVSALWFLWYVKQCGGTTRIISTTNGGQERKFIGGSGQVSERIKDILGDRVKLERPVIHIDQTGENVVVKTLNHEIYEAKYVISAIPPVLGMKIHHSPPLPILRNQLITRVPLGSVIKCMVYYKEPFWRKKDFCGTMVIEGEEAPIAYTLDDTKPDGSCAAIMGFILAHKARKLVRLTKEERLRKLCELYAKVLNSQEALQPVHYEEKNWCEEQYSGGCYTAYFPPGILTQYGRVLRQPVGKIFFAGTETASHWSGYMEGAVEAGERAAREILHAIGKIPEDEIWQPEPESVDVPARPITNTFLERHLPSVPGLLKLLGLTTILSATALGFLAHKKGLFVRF
Chain of cloned hKir2.1 potassium channels (P63252 whole entry): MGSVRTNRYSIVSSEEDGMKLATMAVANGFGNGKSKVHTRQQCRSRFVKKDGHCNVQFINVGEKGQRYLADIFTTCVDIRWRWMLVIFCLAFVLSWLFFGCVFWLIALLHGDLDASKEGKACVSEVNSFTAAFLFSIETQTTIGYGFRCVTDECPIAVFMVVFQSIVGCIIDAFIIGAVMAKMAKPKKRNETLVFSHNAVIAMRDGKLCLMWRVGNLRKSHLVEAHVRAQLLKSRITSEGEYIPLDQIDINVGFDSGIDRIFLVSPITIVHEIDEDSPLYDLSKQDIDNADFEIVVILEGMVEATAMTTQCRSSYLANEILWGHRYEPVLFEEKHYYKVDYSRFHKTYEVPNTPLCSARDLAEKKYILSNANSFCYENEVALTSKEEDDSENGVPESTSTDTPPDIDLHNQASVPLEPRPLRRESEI
T2 sequence (P14416 1-414 isoform P14416-2): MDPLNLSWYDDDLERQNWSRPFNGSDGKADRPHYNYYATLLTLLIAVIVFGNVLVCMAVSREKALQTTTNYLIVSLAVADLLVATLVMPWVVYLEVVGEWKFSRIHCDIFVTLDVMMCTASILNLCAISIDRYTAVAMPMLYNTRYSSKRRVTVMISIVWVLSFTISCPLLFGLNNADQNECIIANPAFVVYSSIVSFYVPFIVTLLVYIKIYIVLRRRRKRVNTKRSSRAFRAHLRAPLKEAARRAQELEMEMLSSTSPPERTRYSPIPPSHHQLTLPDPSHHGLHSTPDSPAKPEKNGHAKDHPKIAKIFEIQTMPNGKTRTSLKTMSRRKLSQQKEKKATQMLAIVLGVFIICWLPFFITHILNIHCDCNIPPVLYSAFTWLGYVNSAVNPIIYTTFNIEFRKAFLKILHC
T3 sequence (P24530 27-442): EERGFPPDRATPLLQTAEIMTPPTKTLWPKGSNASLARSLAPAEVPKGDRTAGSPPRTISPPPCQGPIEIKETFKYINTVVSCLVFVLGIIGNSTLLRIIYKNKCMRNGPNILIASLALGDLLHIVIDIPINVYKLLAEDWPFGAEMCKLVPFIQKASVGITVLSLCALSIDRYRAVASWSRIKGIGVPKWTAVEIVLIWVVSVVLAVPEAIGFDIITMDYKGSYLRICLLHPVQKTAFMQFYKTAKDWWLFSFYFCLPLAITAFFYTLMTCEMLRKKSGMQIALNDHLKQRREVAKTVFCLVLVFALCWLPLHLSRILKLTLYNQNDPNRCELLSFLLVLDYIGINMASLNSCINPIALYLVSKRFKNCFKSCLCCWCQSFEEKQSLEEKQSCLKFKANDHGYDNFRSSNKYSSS
T1 sequence (P41146 whole entry): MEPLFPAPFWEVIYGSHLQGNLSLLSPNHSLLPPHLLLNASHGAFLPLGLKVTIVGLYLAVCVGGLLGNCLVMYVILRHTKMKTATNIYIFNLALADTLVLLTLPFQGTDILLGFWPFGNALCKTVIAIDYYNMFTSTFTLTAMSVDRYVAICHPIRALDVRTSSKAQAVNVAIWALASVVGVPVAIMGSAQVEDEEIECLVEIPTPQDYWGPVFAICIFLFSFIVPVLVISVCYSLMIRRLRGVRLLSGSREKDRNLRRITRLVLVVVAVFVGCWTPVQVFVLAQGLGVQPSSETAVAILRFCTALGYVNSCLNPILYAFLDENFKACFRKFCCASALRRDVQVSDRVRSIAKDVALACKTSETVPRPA

## N=C(N)c1ccc(OCCCCCOc2ccc(C(=N)N)cc2)cc1 [Pentamidine, 1,5-bis-4ρ-amidinophenoxypentane]
[1]
  Percent Inhibition: 55.37%
Imidazoline2 receptor
  Affinity: 0.014 µM
[2]
  Percent Inhibition: -17.52%
P-gp (human MDR1); MDCK-MDR1, pH 7.4, Papp B2A Replicate 1
  Papp B→A at 1 h, 10 µM: 0.336 ×10⁻⁶ cm/s
P-gp (human MDR1); MDCK-MDR1, pH 7.4, Papp B2A Replicate 2
  Papp B→A at 1 h, 10 µM: 0.357 ×10⁻⁶ cm/s
P-gp (human MDR1); MDCK-MDR1, pH 7.4, Papp basal to apical
  Papp B→A at 1 h, 20 µM: 0.418 ×10⁻⁶ cm/s
[3]
  Percent Inhibition: 36.62%
[4]; Muscarinic (central), concentration-response
  Ki: 281 nM
[4]; pentamidine 1.0E^-5 M
  Percent Inhibition: 90.90%
[5]
  Percent Inhibition: 0.09%
GABA A, Agonist Site
  Percent Inhibition: 31.10%
[6]
  Percent Inhibition: 6.07%
[7]; [22]
  inhibition at 5.7 pM: 4.1%
  inhibition at 17 pM: 35%
  inhibition at 51 pM: 65.3%
  inhibition at 0.3 µM: 97.4%
  inhibition at 1 µM: 98.3%
[7]; read-out: IC50 (± 95% CI) of pentamidine
  IC50: 0.0211 nM
[8]
  Percent Inhibition: -1.41%
[9]
  IC50: > 10000 nM
Sigma, Non-selective
  Percent Inhibition: 6.50%
[10]; Imidazoline 1_2, concentration-response
  Ki: 1 nM
[10]; pentamidine 1.0E^-5 M
  Percent Inhibition: 101.03%
Angiotensin II, AT2
  Percent Inhibition: 2.96%
[11]
  Percent Inhibition: 2.07%
[12]; Monoamine oxidase B, concentration-response
  Ki: 181 nM
[12]; pentamidine 1.0E^-5 M
  Percent Inhibition: 99.99%
[13]
  Percent Inhibition: 5.99%
Melatonin, Non-selective
  Percent Inhibition: 23.45%
[14]
  Percent Inhibition: 1.34%
[15]
  reaction constant (k, Ritger-Peppas): ~0.3
  reaction type (diffusional exponent n, Ritger-Peppas): ca. 0.5
Serotonin, Non-selective
  Percent Inhibition: 0.09%
Esterase, Acetylcholine
  Percent Inhibition: 23.21%
Delta2glutamate receptor
  Affinity: 5 µM
[16]
  Percent Inhibition: 12.98%
[17]; Time-dependent
  Affinity, Trypanocidal: 0.01 µM
[17]
  trypanocidal activity in vitro: around 10 nM
[17]; comparator for relative selectivity, read-out: Trypanocidal Activity (IC50), printed in column Ki
  IC50: 10 nM
[17]; read-out: IC50
  IC50: 14.7 ± 4.7 nM
Serine proteases
  Affinity: 4000 µM
Dopamine, D2s (h)
  Percent Inhibition: 20.12%
[18]
  Percent Inhibition: -13.63%
Endothelin, ET-B (h)
  Percent Inhibition: 4.50%
[19]
  Percent Inhibition: 56.14%
Opioid, Non-selective; Opioid, concentration-response
  Ki: 1410 nM
Opioid, Non-selective; pentamidine 1.0E^-5 M
  Percent Inhibition: 76.00%

## [^3H(G)]pentamidine
[20]
  RTISSUE/PLASMA% (mean±SEM) Cerebellum: 204.02 (± 35.28) %
  RTISSUE/PLASMA% (mean±SEM) Choroid plexus: 24666.66 (± 4928) %
  RTISSUE/PLASMA% (mean±SEM) Homogenate: 249.41 (± 35.59) %
  RTISSUE/PLASMA% (mean±SEM) Left brain: 152.29 (± 33.48) %
  RTISSUE/PLASMA% (mean±SEM) Midbrain: 181.18 (± 45.30) %
  RTISSUE/PLASMA% (mean±SEM) Pellet: 479.72 (± 72.50) %
  RTISSUE/PLASMA% (mean±SEM) Pituitary gland: 15053.41 (± 3598) %
  RTISSUE/PLASMA% (mean±SEM) Right brain: 115.52 (± 12.46) %
  RTISSUE/PLASMA% (mean±SEM) Supernatant: 123.35 (± 28.45) %
[21]
  Accumulation corrected for vascular space, hippocampus: 4.3%
  Accumulation corrected for vascular space, hypothalamus: 7.6%
  Accumulation corrected for vascular space, pons: 8.2%

From publication PMC8078842 (PLoS Neglected Tropical Diseases, 2021)
